Test results reported in patent US20030228642A1, “Crohn's disease treatment and efficacy prediction methods” (priority 2002, published 2003).

Experiments:
[1] = test system: M. para. isolated from resected tissue of CD patients; assay: in vitro test of seven antituberculosis drugs against M. para. (Bactec system); assay type: cell-based, Mycobacterium paratuberculosis; design: key to Status: R, resistant; S, sensitive; settings: for IC99.9: 99.9% M. para. cells inhibited or killed, Bactec system, combinations given as drug:drug, read-out: MIC99.9; for Status: M. para. resistant or sensitive to the drug
Crohn's disease [2] = assay: comparison of age-matched MAP-positive and MAP-negative patients at 1 year (CDAI); assay type: in vivo, human; settings: patients unresponsive to antibiotics, MAP-negative group
Description: Another study was undertaken to compare age-matched MAP-positive and -negative patients utilizing ELISA analysis for serum antibodies to MAP. 10 MAP-positive and 10 MAP-negative patients were compared at 1 year, utilizing the CDAI score as a primary endpoint. The elimination of corticosteroids and the need for immunotherapy were considered secondary endpoints. The MAP-positive patients achieved complete remission in 9 out of the 10 cases, with entry CDAI score of 285 and exit score of 111. Steroids were eliminated in 8 of 10 patients, with 2 patients requiring low-dose steroids. In the MAP-negative group at 1 year, 6 of 10 patients were in complete remission, with an entry CDAI score of 308 and an exit score of 179. Of the responsive patients, 3 of 6 required additional immunotherapy, and 3 remained on antibiotics alone.

Crohn's disease [3] = settings: cited from earlier work

Row | Compound | IC99.9 [1] [µg/mL] | Status [1] | induction of remission (Crohn's disease [2]) | benefit of every 8-week administration (Crohn's disease [3]; over 550 patients with CD, preliminary trial results) | complications of the immunosuppresive effects (Crohn's disease [3]; patients treated for CD and rheumatoid arthritis)
1 | CC[C@H]1OC(=O)[C@H](C)[C@@H](O[C@H]2C[C@@](C)(OC)[C@@H](O)[C@H](C)O2)[C@H](C)[C@@H](O[C@@H]2O[C@H](C)C[C@H](N(C)C)[C@H]2O)[C@](C)(OC)C[C@@H](C)C(=O)[C@H](C)[C@@H](O)[C@]1(C)O [CLR, clarithromycin] | < 1.25 | S |  |  | 
2 | CC[C@@H](CO)NCCN[C@@H](CC)CO [EMB, ethambutol] | < 3 | S |  |  | 
3 | NNC(=O)c1ccncc1 [INH, isoniazid] | > 20 | R |  |  | 
4 | NC[C@H]1O[C@H](O[C@H]2[C@H](O)[C@@H](O[C@H]3O[C@H](CO)[C@@H](O)[C@H](N)[C@H]3O)[C@H](N)C[C@@H]2N)[C@H](O)[C@@H](O)[C@@H]1O [KM, kanamycin] | < 3 | R |  |  | 
5 | NC(=O)c1cnccn1 [PZA, pyrazinamide] | > 20 | R |  |  | 
6 | CO[C@H]1/C=C/O[C@@]2(C)Oc3c(C)c(O)c4c(O)c(c(/C=N/N5CCN(C)CC5)c(O)c4c3C2=O)NC(=O)/C(C)=C\C=C\[C@H](C)[C@H](O)[C@@H](C)[C@@H](O)[C@@H](C)[C@H](OC(C)=O)[C@@H]1C [RIF, Rifampicin] | > 2.6 | R |  |  | 
7 | [H]/N=C(/N)N[C@H]1[C@H](O)[C@@H](O)[C@H](O[C@@H]2O[C@@H](C)[C@](O)(C=O)[C@H]2O[C@@H]2O[C@@H](CO)[C@H](O)[C@@H](O)[C@@H]2NC)[C@@H](N/C(N)=N\[H])[C@@H]1O [ST, streptomycin] | > 3 | R |  |  | 
8 | infliximab: a monoclonal chimeric antibody to tumor necrosis factor α (TNF-α) |  |  | induction of remission in all patients | maintenance of remission and improved quality of life | Documented cases of miliary tuberculosis
